Experiments:
[1] = in vivo
Experimental: A randomized, double-blind, multicenter, dose-ranging Phase II trial was performed to identify the dose response relationship among single I.V. doses of palonosetron. Patients receiving highly emetogenic chemotherapy including cyclophosphamide (>1100 mg/m2) and cisplatin (>70 mg/m2), commonly associated with delayed emesis, were assigned to one of five dose groups of a single I.V. administration of palonosetron. Palonosetron was administered alone (without dexamethasone) as a 30 second intravenous injection, 30 minutes prior to chemotherapy administration. The primary endpoint was 24-hour complete responses (no emesis, no rescue) (CR). Secondary endpoints included complete control (no emesis, no rescue, mild nausea) (CC) and 5-day CR.
161 patients (32 women, 129 men) participated.

[2] = Plasma half-life of palonosetron; assay type: in vivo; conditions: human

Cl.O=C1c2cccc3c2[C@H](CCC3)CN1[C@@H]1CN2CCC1CC2 [Palonosetron, (3aS)-2,3,3a,4,5,6-Hexahydro-2-[(S)-1-Azabicyclo[2.2.2]oct-3-yl]2,3,3a,4,5,6-hexahydro-1-oxo-1Hbenz[de]isoquinoline hydrochloride]
adverse events either mild or moderate ([1]; both, human): 83.9%
adverse events not attributed to study medication ([1]; both, human): 86.0%
adverse events related to study medication: abdominal pain ([1]; both, human): 2.5%
adverse events related to study medication: constipation ([1]; both, human): 8.7%
adverse events related to study medication: dizziness ([1]; both, human): 2.5%
adverse events related to study medication: headache ([1]; both, human): 19.3%
serious drug-related events [1]: No serious drug-related events were reported
half-life [2]: ~40 h
